Assay results as given in patent US9345245B2, “Synthetic compounds for vegetative ABA responses” (THE REGENTS OF THE UNIVERSITY OF CALIFORNIA, priority 2012, dated 2016).

Experiments:
[1] = test system: Physcomitrella patens protonema; assay: Protonema growth of moss; format: in vivo; settings: 200 μM, 10 days
Procedure: FIG. 17. The effect of ABA and its agonists in Physcomitrella patens and Chlamydomonas. Protonemal growth images (A) and quantitative analysis (B) of the effects of ABA and agonists on Phsycomitrella patens. Protonema were grown on 200 μM of specific test chemical for 10 days. […] Pyrabactin bleached protonema. (C) The expression of ABA-responsive genes of Physcomitrella patens. Protonema were treated with 200 μM chemical solutions for 3 h. (D) Colony growth of Chlamydomonas on the chemical with salinity stress and osmotic stress. There was no effect of ABA and LC66C6 on the Chlamydomonas growth with and without stresses.

ABA-responsive genes [2] = assay: ATH1 microarray analysis of seedlings; format: in vivo, Arabidopsis; settings: wild-type seedlings; 25 μM
Procedure: FIG. 9. LC66C6 induces numerous ABA-responsive genes. […] Ten-day old seedlings were treated with carrier solvent (DMSO) or either 25 μM ABA, pyrabactin or LC66C6 for 8 hours. Total RNA was then prepared labeled and hybridized to ATH1 microarrays. Data plotted are log 2 transformed average expression values for ˜13K probes that were detectable across all experiments. Data shown are averages determined from triplicate biological replicates. (C) and (D) show the expression of a reporter gene in different plant tissues after treatment with vehicle (DMSO), pyrabactin, LC66C6, or (+)-ABA.
Total RNA was isolated using RNAeasy Plant Mini Kit (Qiagen, USA) according to the manufacturer's instructions. cDNA synthesis, labeling and hybridization to the Arabidopsis ATH1 chips (Affymetrix, USA) were performed by the IIGB Core Instrumentation Facility of University of California at Riverside using Affymetrix protocols. Biological triplicate samples were hybridized for DMSO controls, ABA, pyrabactin and quinabactin treatments; compound were applied at 25 μM final concentration and RNA prepared from frozen tissue after 6 hours exposure to compounds or controls. Expression signals for probe sets were calculated and normalized by MASS Statistical Algorithm (Affymetrix, USA). Experimental filtering of array data was performed for the presence of signal in all experiments. […]

PYR/PYL receptors = assay: Yeast two-hybrid agonist assay (PYR/PYL receptor - PP2C HAB1 interaction); format: cell-based, Arabidopsis; settings: 5 uM of test chemicals
Procedure: FIG. 1. Novel ABA agonists bind to multiple PYR/PYL. (A) Chemical structure of naturally occurring (+)-ABA, its (-) analog and selected ABA agonists. (B) Yeast two-hybrid agonist assays of PYR/PYL receptor sensitivity to 5 uM of test chemicals. Specific PYR/PYL Receptors and the PP2C HAB1 are expressed as Gal4 BD or AD fusion proteins respectively, as described in the text. A previously described yeast two-hybrid system was used in high throughput screens (HTS) to identify ABA agonists (see, Peterson F C, et al. (2010) Structural basis for selective activation of ABA receptors. Nature Structural & Molecular Biology 17(9):1109-1111). In this system the agonist promoted receptor-PP2C interaction drives expression of a URA3 or HIS3 reporter gene and rescues uracil or histidine auxotrophy of parental strains (Peterson F C, et al. (2010); […], Harlow E, & Boeke J D (1996) Reverse two-hybrid and one-hybrid systems to detect dissociation of protein-protein and DNA-protein interactions. Proceedings of the National Academy of Sciences of the United States of America 93(19):10315-10320). HTS were conducted using 5 different reporter strains that express binding domain (BD) fusions to […]3 or PYL4; these were co-expressed with activation domain (AD) fusions to HAB1 (pACT-HAB1); the constructs used have been described previously (Park et al. 2009). […]

ABA-responsive genes [3] = settings: higher concentrations; Park et al., 2009; cited from earlier work

Compound: O=S(=O)(NCc1ccccn1)c1ccc(Br)c2ccccc12 [pyrabactin]
- bleaching of protonema (toxicity) [1]: bleached the protonema
- genome-wide gene expression pattern compared with ABA (ABA-responsive genes [2]): did not induce an expression pattern similar to that of ABA
- receptor selectivity in yeast two-hybrid assay (PYR/PYL receptors): much greater receptor selectivity than ABA or the new agonist LC66C6
- ABA-related gene expression in seedlings (ABA-responsive genes [3]): induce modest ABA-related gene expression
